Measured values published in patent US12275684B2, “Methods for making and using endoxifen” (Atossa Therapeutics, Inc., priority 2017, dated 2025).
Where “and” joins values, the source holds several entries; their conditions need not be identical. Equal values may be shown once. Read-outs that look alike come from different tables or passages of the source.

How the values were obtained:
[1] = Accelerated 10-day stability study of solid (Z)-endoxifen free base (E/Z by HPLC); format: physicochemical; conditions: for (E)-endoxifen content / (Z)-endoxifen content / E/Z ratio / Total Impurity: solid
Description: HPLC-UV analyses of the samples was carried out using a Luna phenyl-hexyl column (4.6 mm×150 mm×3 μm of particle size). The column temperature was 40° C. and sample compartment temperature was maintained at ambient temperature. Samples were prepared by dissolving solids and filtrates at 0.2 mg/ml of sample in methanol as sample buffer. Samples were then injected into the column in an injection volume of 20 μl. Likewise, mildly acidic (pH 4.3) ammonium formate buffer/methanol in the mobile phase with gradient elution was used. Mobile phase system consisting of: Mobile Phase A (MPA) buffer was 10 mM HCOONH4 with 0.03% HCOOH buffer in water, and Mobile Phase B (MBP) buffer was 10 mM HCOONH4 in methanol with a gradient program used.
The run time was 30 m, the flow rate was 1.0 mL/m, and the delay time was 5 m. Samples were detected by UV detection at 243 nm. Retention times were typically from 12.95 to 13.20 m for (E)-endoxifen and from 14.0 to 14.33 m for (Z)-endoxifen. Relative Retention Time (RRT) for (E)-endoxifen was […] and 1.0 for (Z)-endoxifen.
The stability of (Z)-endoxifen free base Sample 1 of Table 11 was studied when stored at various temperatures in solid form and in ethanol (EtOH) solution. The (E)-endoxifen and (Z)-endoxifen levels were measured on days 2, 7 and 10 following placement of 1 g aliquots of purified (Z)-endoxifen free base in 180 mL HDPE bottles under dry N2, which were then placed in double LDPE bags. The double bagged HDPE bottles containing each sample were individually packed in aluminum foil bags and thermally sealed until they were opened for testing the stability of the samples. The (E)- and (Z)-isomers of endoxifen were monitored by HPLC as disclosed above. The purity of (Z)-endoxifen in solid form remained at about 97% at 40° C., 60° C., and 80° C. up to 10 days.

[2] = cited from earlier work

SMILES: CC/C(=C(\c1ccc(O)cc1)c1ccc(OCCNC)cc1)c1ccccc1 [(Z)-Endoxifen, (Z)-4-(1-(4-(2-(methylamino)ethoxy)phenyl)-2-phenylbut-1-enyl) phenol]
- purity of (Z)-endoxifen in solid form ([1]; 40° C., 60° C., and 80° C. up to 10 days): about 97%
- (E)-endoxifen content ([1]; 40° C., 2 days): 1.27%
- (Z)-endoxifen content ([1]; 40° C., 2 days): 97.45%
- E/Z ratio ([1]; 40° C., 2 days): 1/76
- Total Impurity ([1]; 40° C., 2 days): 1.28%
- (E)-endoxifen content ([1]; 40° C., 7 days): 1.2%
- (Z)-endoxifen content ([1]; 40° C., 7 days): 97.11%
- E/Z ratio ([1]; 40° C., 7 days): 1/81
- Total Impurity ([1]; 40° C., 7 days): 1.69%
- (E)-endoxifen content ([1]; 40° C., 10 days): 1.29%
- (Z)-endoxifen content ([1]; 40° C., 10 days): 97.31%
- E/Z ratio ([1]; 40° C., 10 days): 1/75
- Total Impurity ([1]; 40° C., 10 days): 1.40%
- (E)-endoxifen content ([1]; 60° C., 2 days): 1.30%
- (Z)-endoxifen content ([1]; 60° C., 2 days): 97.43%
- E/Z ratio ([1]; 60° C., 2 days): 1/75
- Total Impurity ([1]; 60° C., 2 days): 1.27%
- (E)-endoxifen content ([1]; 60° C., 7 days): 1.17%
- (Z)-endoxifen content ([1]; 60° C., 7 days): 97.1%
- E/Z ratio ([1]; 60° C., 7 days): 1/83
- Total Impurity ([1]; 60° C., 7 days): 1.72%
- (E)-endoxifen content ([1]; 60° C., 10 days): 1.27%
- (Z)-endoxifen content ([1]; 60° C., 10 days): 97.48%
- E/Z ratio ([1]; 60° C., 10 days): 1/82
- Total Impurity ([1]; 60° C., 10 days): 1.33%
- (E)-endoxifen content ([1]; 80° C., 2 days): 1.28%
- (Z)-endoxifen content ([1]; 80° C., 2 days): 97.42%
- E/Z ratio ([1]; 80° C., 2 days): 1/76
- Total Impurity ([1]; 80° C., 2 days): 1.30%
- (E)-endoxifen content ([1]; 80° C., 7 days): 1.34%
- (Z)-endoxifen content ([1]; 80° C., 7 days): 96.92%
- E/Z ratio ([1]; 80° C., 7 days): 1/72
- Total Impurity ([1]; 80° C., 7 days): 1.74%
- (E)-endoxifen content ([1]; 80° C., 10 days): 1.27%
- (Z)-endoxifen content ([1]; 80° C., 10 days): 97.33%
- E/Z ratio ([1]; 80° C., 10 days): 1/77
- Total Impurity ([1]; 80° C., 10 days): 1.40%
- interconversion of (Z)- to (E)-endoxifen in solid form ([1]; tested temperatures up to 10 days): does not interconvert to (E)-endoxifen
- Published Literature Result of Average Plasma (Z)-Endoxifen Css ([2]; oral dose 1 mg): 12.4 ng/mL and 33.1 nM
- Published Literature Result of Average Plasma (Z)-Endoxifen Css ([2]; oral dose 2 mg): 18.6 ng/mL and 49.8 nM
- Published Literature Result of Average Plasma (Z)-Endoxifen Css ([2]; oral dose 4 mg): 56.8 ng/mL and 152.1 nM
- Published Literature Result of Average Plasma (Z)-Endoxifen Css ([2]; oral dose 8 mg): 96.8 ng/mL and 259.2 nM
